Reference: patent US10576082B2, “ErbB2 regulates autophagic flux to modulate the proteostasis of APP-CTFs in alzheimer's disease” (Academia Sinica, priority 2016, dated 2020)

Assays:
[1] = tested on: γ-secretase-mediated proteolysis of NΔE (NG cells); test: Cell-based NΔE-specific γ-secretase assay (NG cells, Gal4 luciferase reporter); settings: dose-dependent manner
Description: (§1) (A) Adherent CG and NG cells (20,000 cells/well) were treated with 1 μM of the indicated ErbB1/2-selective tyrosine kinase inhibitors in the presence of 1 μg/ml tetracycline at 37° C. for 24 h. The luminescence signals emitted by cells treated with vehicle alone (Ctrl, 0.1% DMSO) were referred to as 100% relative luminescence signals. The luminescence signals generated by γ-secretase-mediated proteolysis of C99 (CG) or NΔE (NG) were determined using the Steady-Glo luciferase assay reagent. (B) HEK293 overexpressing C99-YFP cells were treated with 1 μM of the indicated ErbB1/2 tyrosine kinase inhibitors at 37° C. for 24 h. Clarified lysates were analyzed by Western blotting and quantified by Image J. (C) HEK293 overexpressing ErbB1 ErbB2, CFP-tagged C99, and YFP-tagged NΔE cells were infected with gene-targeting shRNA-encoding lentivirus (shErbB1 or shErbB2) at 37° C. for 48 h. Clarified lysates containing equivalent amounts of proteins were examined by Western blotting and quantified by Image J. (D) CG and NG cells were infected with gene-targeting shRNA-encoding lentivirus at 37° C. for 48 h. Following induction with 1 μg/ml tetracycline for 24 h. […] Data are shown as the mean±SD from three independent experiments, and were analyzed by Student's t-tests. * p<0.05. […]

[2] = tested on: γ-secretase-mediated proteolysis of C99 (CG cells); test: Cell-based C99-specific γ-secretase assay (CG cells, Gal4 luciferase reporter); settings: dose-dependent manner
Description: as §1

[3] = tested on: zebrafish embryos expressing GFP-tagged C99; test: Phenotype of C99-expressing zebrafish embryos (curved trunk, Notch-dependent somite development); assay type: in vivo; settings: zebrafish, in vivo
[4] = tested on: γ-secretase cleavage of CFP-C99 and YFP-NΔE in HEK293 (CCNY) cells; test: Cell-based C99-NΔE dual γ-secretase assay (CCNY cells); settings: CCNY cell line
Description: To generate a cellular γ-secretase assay that could be used to simultaneously identify cleavage of C99 and NΔE and the production of AICD and NICD, we […] HEK293 cells with pAS2-CCNY and selected transfectants with DMEM medium containing 10% FBS and 250 μg/ml zeocin. […] The CCNY clone was selected and optimized for the cell-based C99-NΔE dual γ-secretase assay.

[5] = tested on: HEK293 cells overexpressing ErbB1, ErbB2, CFP-tagged C99, and YFP-tagged NΔE; test: Lysosome inhibitor rescue after ErbB2 knockdown, Western blotting of HEK293 cells co-expressing ErbB1, ErbB2, CFP-C99, YFP-NΔE; assay type: cell-based; settings: 10 μM chloroquine or 10 mM ammonium chloride, 37° C., 24 h after 48 h shRNA infection
Description: Clarified lysates containing equivalent amounts of proteins were analyzed by Western blotting. (B, C) HEK293 overexpressing CFP-LC3 cells were infected with lentivirus encoding shRNA targeting LacZ ErbB2, or ErbB2 plus ATG5 for 48 h. The autophagy induction was analyzed by fluorescence confocal microscopy. The number of CFP-LC3 puncta per cell was quantified. The levels of LC3-I, LC3-II, and GAPDH were analyzed by Western blotting. (D, E) HEK293 cells overexpressing ErbB1, ErbB2, CFP-tagged C99, and YFP-tagged NΔE were infected with lentivirus encoding shRNA targeting LacZ (Ctrl), ErbB1, or ErbB2 for 48 h. […] The levels of LC3-1, LC3-II, and p62 were analyzed by Western blotting and quantified by NIH Image J. Conditional media were harvested and processed for determination of secreted Aβ40 using a colourimetric Aβ40-specific ELISA kit. […] The quantitative data are shown as mean±SD from three independent experiments, and were analyzed by Student's t-tests. * p<0.05.
Preparation of cell extracts. […] Following the removal of cell debris by centrifugation, clarified lysates were processed for immunoprecipitation, Western blotting, or quantification of BCA protein content.
Western blotting analysis. Protein concentration was measured with the BCA Protein Assay Kit (Pierce). […]

| SMILES | γ-secretase-dependent luciferase signals in NG cells [1] | γ-secretase-dependent luciferase signals in CG cells [2] | embryo phenotype (trunk, tail, pigmentation; developmental defects) [3] | cleavage of CFP-C99 and YFP-NΔE [4] | rescue of the reduction in C99 and AICD elicited by ErbB2 knockdown [5] |
| --- | --- | --- | --- | --- | --- |
| C[C@H](NC(=O)Cc1cc(F)cc(F)c1)C(=O)N[C@H](C(=O)OC(C)(C)C)c1ccccc1 [DAPT, N—[N-(3,5-difluorophenacetyl-L-alanyl)]-S-phenylglycine t-butyl ester] | decreased γ-secretase-dependent luciferase signals | decreased γ-secretase-dependent luciferase signals | severe developmental defects | completely suppressed |  |
| Cl.N [ammonium chloride] |  |  |  |  | rescued |
| CCN(CC)CCCC(C)Nc1ccnc2cc(Cl)ccc12 (stereo not drawn) [chloroquine] |  |  |  |  | rescued |
